The target of one assay is T1, HDAC6 enzyme (Homo sapiens, UniProt Q9UBN7).
T1 construct: HDAC6 enzyme prepared by transducing full length HDAC6 gene into Sf-9 insect cells; GST; purchased SignalChem; host or cells: Sf-9 insect cells
T1 sequence (Q9UBN7 1-1215): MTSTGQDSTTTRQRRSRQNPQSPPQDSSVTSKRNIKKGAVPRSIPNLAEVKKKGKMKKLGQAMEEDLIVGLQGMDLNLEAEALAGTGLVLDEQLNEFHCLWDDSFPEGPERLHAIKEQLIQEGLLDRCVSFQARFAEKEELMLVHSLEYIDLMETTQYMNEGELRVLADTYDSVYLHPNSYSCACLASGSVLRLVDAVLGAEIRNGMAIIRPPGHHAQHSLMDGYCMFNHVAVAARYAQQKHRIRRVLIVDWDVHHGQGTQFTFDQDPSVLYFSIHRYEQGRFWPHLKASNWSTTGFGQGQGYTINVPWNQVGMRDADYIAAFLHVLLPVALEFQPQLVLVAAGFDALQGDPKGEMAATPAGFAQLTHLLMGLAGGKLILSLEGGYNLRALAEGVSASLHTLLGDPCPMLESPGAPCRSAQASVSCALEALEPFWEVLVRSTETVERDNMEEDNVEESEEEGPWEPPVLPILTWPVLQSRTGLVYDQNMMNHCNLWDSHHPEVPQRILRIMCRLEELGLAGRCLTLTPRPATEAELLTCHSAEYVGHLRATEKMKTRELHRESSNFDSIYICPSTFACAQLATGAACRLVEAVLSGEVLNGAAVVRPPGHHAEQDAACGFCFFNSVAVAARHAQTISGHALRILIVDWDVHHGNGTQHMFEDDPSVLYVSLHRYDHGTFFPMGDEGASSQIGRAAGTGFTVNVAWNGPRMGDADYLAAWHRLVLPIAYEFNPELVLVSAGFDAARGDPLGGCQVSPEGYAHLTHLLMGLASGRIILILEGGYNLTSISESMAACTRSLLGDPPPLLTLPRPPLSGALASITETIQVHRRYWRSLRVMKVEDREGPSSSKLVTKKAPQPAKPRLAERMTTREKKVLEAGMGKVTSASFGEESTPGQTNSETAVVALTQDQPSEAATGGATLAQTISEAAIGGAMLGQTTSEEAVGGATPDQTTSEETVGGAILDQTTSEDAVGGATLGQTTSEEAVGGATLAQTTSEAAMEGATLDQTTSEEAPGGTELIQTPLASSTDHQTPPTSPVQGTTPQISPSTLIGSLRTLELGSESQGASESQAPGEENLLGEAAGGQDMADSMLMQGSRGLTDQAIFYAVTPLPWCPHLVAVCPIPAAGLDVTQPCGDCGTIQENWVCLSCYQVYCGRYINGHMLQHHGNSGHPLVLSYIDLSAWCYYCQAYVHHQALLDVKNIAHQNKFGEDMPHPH
The assay can be described thus: HDAC6 enzyme inhibitory assay (HDAC-Glo I/II Assay kit). Format: biochemical. Conditions: wells without enzyme = 100% inhibition, 10 µM. As for the experimental part:
Experimental Example 1 HDAC6 Enzyme Inhibitory Assay
HDAC6 enzyme prepared by transducing full length HDAC6 gene into Sf-9 insect cells and purifying by GST affinity column were purchased from SignalChem. Using this enzyme, HDAC6 enzyme inhibitory activity of the compound of the present invention were evaluated. Enzymes were used after preserved at −70° C. HDAC6 enzyme inhibitory activity of the compound of the present invention was measured using HDAC-Glo™ I/II Assay kit (Promega) according to the following experimental method. The test compound diluted with assay buffer (24 mM Tris-HCl (pH 7.5), 1 mM MgCl2, 0.35 mM KCl, 135 mM NaCl, 0.6 mM Glutathione, 0.01% Tween-20) was added to a 384-well plate by each 2 μL. Then, HDAC6 enzyme solution diluted with assay buffer was added thereto by each 4 μL, and the plate was incubated at room temperature for 60 min. After incubated, HDAC substrate-Developer solution prepared according to Promega protocol attached to the assay kit was added to the 384-well plate by each 2 μL, and the enzyme reaction was started. After reacting at room temperature for 20 min, luminescence level was measured using plate reader Envision (PerkinElmer). The inhibitory activity of each compound of Example was calculated as a relative activity value when luminescence level in wells without enzyme is considered as 100% inhibition.
With `O=C1c2cc(-c3nnc(C(F)F)o3)ccc2CN1[C@H](c1ccc(F)cc1F)[C@@H](O)c1ccc(F)cc1` (single isomer, unassigned) [Example 33, 6-[5-(difluoromethyl)-1,3,4-oxadiazol-2-yl]-2-[(1R*,2S*)-1-(2,4-difluorophenyl)-2-(4-fluorophenyl)-2-hydroxyethyl]-2,3-dihydro-1H-isoindol-1-one], the “HDAC6 inhibitory rate (%) (10 μM)” value came to 100%.

Staying with this assay, now noted: wells without enzyme = 100% inhibition, read-out: HDAC6 inhibitory rate (%) (10 μM).
Take `O=C1c2cc(-c3nnc(C(F)F)o3)ccc2CN1[C@H](c1ncccn1)[C@H](O)c1cccc(F)c1` (racemic) [Example 136, 6-[5-(difluoromethyl)-1,3,4-oxadiazol-2-yl]-2-[(1RS,2RS)-2-(3-fluorophenyl)-2-hydroxy-1-(pyrimidin-2-yl)ethyl]-2,3-dihydro-1H-isoindol-1-one]: the inhibition at 10 µM worked out at 99%.

Take `O=C1c2cc(-c3nnc(C(F)F)o3)ccc2CN1[C@@H](c1ccc(F)cc1)[C@@H](O)c1ccccc1` (racemic) [Example 138, 6-[5-(difluoromethyl)-1,3,4-oxadiazol-2-yl]-2-[(1SR,2SR)-1-(4-fluorophenyl)-2-hydroxy-2-phenylethyl]-2,3-dihydro-1H-isoindol-1-one]: the inhibition at 10 µM came out at 99%.

Consider `O=C1c2cc(-c3nnc(C(F)F)o3)ccc2CN1[C@H](c1ccccc1)[C@H](O)c1ccccc1F` (racemic) [Example 139, 6-[5-(difluoromethyl)-1,3,4-oxadiazol-2-yl]-2-[(1RS,2RS)-2-(2-fluorophenyl)-2-hydroxy-1-phenylethyl]-2,3-dihydro-1H-isoindol-1-one], for which the inhibition at 10 µM stood at 100%.

In the case of `O=C1c2cc(-c3nnc(C(F)F)o3)ccc2CN1[C@H](c1ccc(F)cc1)[C@H](O)C1CC1` (racemic) [Example 140, 2-[(1RS,2RS)-2-cyclopropyl-1-(4-fluorophenyl)-2-hydroxyethyl]-6-[5-(difluoromethyl)-1,3,4-oxadiazol-2-yl]-2,3-dihydro-1H-isoindol-1-one], the inhibition at 10 µM stood at 98%.

Take `O=C1c2cc(-c3nnc(C(F)F)o3)ccc2CN1[C@H](c1ccccn1)[C@H](O)c1ccc(F)cc1` (racemic) [Example 141, 6-[5-(difluoromethyl)-1,3,4-oxadiazol-2-yl]-2-[(1RS,2RS)-2-(4-fluorophenyl)-2-hydroxy-1-(pyridin-2-yl)ethyl]-2,3-dihydro-1H-isoindol-1-one]: the inhibition at 10 µM turned out to be 99%.

Regarding `O=C1c2cc(-c3nnc(C(F)F)o3)ccc2CN1[C@H](c1ccc(F)cc1)[C@H](O)c1ccc(C(F)(F)F)nc1` (racemic) [Example 142, 6-[5-(difluoromethyl)-1,3,4-oxadiazol-2-yl]-2-{(1RS,2RS)-1-(4-fluorophenyl)-2-hydroxy-2-[6-(trifluoromethyl)pyridin-3-yl]ethyl}-2,3-dihydro-1H-isoindol-1-one], the inhibition at 10 µM amounted to 100%.

`O=C1c2cc(-c3nnc(C(F)F)o3)ccc2CN1[C@H](c1ccccn1)[C@H](O)c1ccccc1` (racemic) [Example 143, 6-[5-(difluoromethyl)-1,3,4-oxadiazol-2-yl]-2-[(1RS,2RS)-2-hydroxy-2-phenyl-1-(pyridin-2-yl)ethyl]-2,3-dihydro-1H-isoindol-1-one]: the inhibition at 10 µM was determined as 100%.

Consider `O=C1c2cc(-c3nnc(C(F)F)o3)ccc2CN1[C@H](c1ccc(F)cn1)[C@H](O)c1ccccn1` (racemic) [Example 144, 6-[5-(difluoromethyl)-1,3,4-oxadiazol-2-yl]-2-[(1RS,2SR)-1-(5-fluoropyridin-2-yl)-2-hydroxy-2-(pyridin-2-yl)ethyl]-2,3-dihydro-1H-isoindol-1-one], for which the inhibition at 10 µM was found to be 100%.

On to `O=C1c2cc(-c3nnc(C(F)F)o3)ccc2CN1[C@@H](c1ccccn1)[C@@H](O)c1cccc(F)c1` (racemic) [Example 145, 6-[5-(difluoromethyl)-1,3,4-oxadiazol-2-yl]-2-[(1SR,2SR)-2-(3-fluorophenyl)-2-hydroxy-1-(pyridin-2-yl)ethyl]-2,3-dihydro-1H-isoindol-1-one], for which the inhibition at 10 µM turned out to be 99%.

As for `O=C1c2cc(-c3nnc(C(F)F)o3)ccc2CN1[C@@H](c1ccc(F)cc1F)[C@@H](O)c1ccc(F)cc1` (racemic) [Example 146, 6-[5-(difluoromethyl)-1,3,4-oxadiazol-2-yl]-2-[(1SR,2SR)-1-(2,4-difluoro-phenyl)-2-(4-fluorophenyl)-2-hydroxy-ethyl]-2,3-dihydro-1H-isoindol-1-one], the inhibition at 10 µM came out at 95%.

Take `O=C1c2cc(-c3nnc(C(F)F)o3)ccc2CN1[C@H](c1ccc(F)cc1)[C@H](O)c1cccc(F)c1` (racemic) [Example 147, 6-[5-(difluoromethyl)-1,3,4-oxadiazol-2-yl]-2-[(1RS,2RS)-2-(3-fluorophenyl)-1-(4-fluorophenyl)-2-hydroxyethyl]-2,3-dihydro-1H-isoindol-1-one]: the inhibition at 10 µM turned out to be 99%.

For `O=C1c2cc(-c3nnc(C(F)F)o3)ccc2CN1[C@H](c1ccc(F)cc1)[C@@H](O)c1ccc(C(F)(F)F)nc1` (relative stereo) [Example 55, 6-[5-(difluoromethyl)-1,3,4-oxadiazol-2-yl]-2-{(1R*,2S)-1-(4-fluorophenyl)-2-hydroxy-2-[6-(trifluoromethyl)pyridin-3-yl]ethyl}-2,3-dihydro-1H-isoindol-1-one], the inhibition at 10 µM was determined as 98%.

As to `O=C1c2cc(-c3nnc(C(F)F)o3)ccc2CN1[C@H](c1cccnn1)[C@@H](O)c1ccc(Cl)cc1` (relative stereo) [Example 110, 2-[(1R*,2S)-2-(4-chlorophenyl)-2-hydroxy-1-(pyridazin-3-yl)ethyl]-6-[5-(difluoromethyl)-1,3,4-oxadiazol-2-yl]-2,3-dihydro-1H-isoindol-1-one], the inhibition at 10 µM is 100%.

For the compound `O=C1c2cc(-c3nnc(C(F)F)o3)ccc2CN1[C@H](c1cccnn1)[C@@H](O)c1cccc(Cl)c1` (relative stereo) [Example 121, 2-[(1R*,2S)-2-(3-chlorophenyl)-2-hydroxy-1-(pyridazin-3-yl)ethyl]-6-[5-(difluoromethyl)-1,3,4-oxadiazol-2-yl]-2,3-dihydro-1H-isoindol-1-one], the inhibition at 10 µM turned out to be 101%.

Take `O=C1c2cc(-c3nnc(C(F)F)o3)ccc2CN1[C@H](c1cccc(F)n1)[C@@H](O)c1ccc(F)cn1` (relative stereo) [Example 125, 6-[5-(difluoromethyl)-1,3,4-oxadiazol-2-yl]-2-[(1R*,2R)-2-(5-fluoropyridin-2-yl)-1-(6-fluoropyridin-2-yl)-2-hydroxyethyl]-2,3-dihydro-1H-isoindol-1-one]: the inhibition at 10 µM turned out to be 101%.

On to `O=C1c2cc(-c3nnc(C(F)F)o3)ccc2CN1[C@H](c1ccc(F)cc1F)[C@@H](O)c1ccc(F)cc1` (single isomer, unassigned) [Example 32, 6-[5-(difluoromethyl)-1,3,4-oxadiazol-2-yl]-2-[(1R*,2S*)-1-(2,4-difluorophenyl)-2-(4-fluorophenyl)-2-hydroxyethyl]-2,3-dihydro-1H-isoindol-1-one], for which the inhibition at 10 µM came to 99%.

Regarding `O=C1c2cc(-c3nnc(C(F)F)o3)ccc2CN1[C@H](c1ccc(F)nc1)[C@@H](O)c1ccc(F)cc1` (single isomer, unassigned) [Example 34, 6-[5-(difluoromethyl)-1,3,4-oxadiazol-2-yl]-2-[(1R*,2S*)-2-(4-fluorophenyl)-1-(6-fluoropyridin-3-yl)-2-hydroxyethyl]-2,3-dihydro-1H-isoindol-1-one], the inhibition at 10 µM is 100%.
